Experiments:
Cyclin D protein = assay: Immunoblotting of Cyclin D in LNCaP; type: cell-based, human
Description: (§1) The amount of protein is determined by Bio-Rad protein reagent. Bovine serum albumin (BSA) of 0.1 mg/ml is the protein standard in the protein assay. Distilled water of 240 μl containing various known protein standards (the amounts of protein respectively are 0, 2, 4, 8, 12, 16, 20 and 30 μg) and 60 μl of Bio-Rad reagent are mixed gently in 96-well cell culture plate. The absorbance at the wavelength of 595 nm relative to the absorbance of blank test is determined using spectrophotometer (Hitachi U-200, Japan). A standard curve is evaluated from the known amounts of the protein standards and the absorbance thereof, and the amounts of the unknown proteins can be obtained according to this standard curve.
(§2) The quantified proteins are resolved by sodium dodecyl sulfate-polyacrylamide gel electrophoresis (SDS-PAGE), and the protein expression is evaluated by immunoblotting. The dilution rate of primary antibodies (i.e. anti-AR, anti-p21, anti-p27, anti-cyclin D, anti-cdk4 and anti-cdk6) is 1000 times, and that of anti-β-actin is 5000 times. The primary antibody detects the proteins for 1 hour, and the primary antibody is detected with the horseradish peroxidase (HRP)-conjugated secondary antibody for 1 hour. Finally, the detected protein are developed with enhanced chemical luminescence.

[1] = Body weight of LNCaP-xenografted rude mice; type: in vivo
Bcl-2 = Bcl-2 expression in LNCaP; type: cell-based, human; conditions: various concentrations, 48 hours, FIG. 16(B)
CDK4 protein = assay: Immunoblotting of CDK4 in LNCaP; type: cell-based, human
Description: as §1, §2

p21 protein = assay: Immunoblotting of p21 in LNCaP; type: cell-based, human
Description: as §1, §2

[2] = test system: human prostate carcinoma LNCaP; assay: Analysis of cell cycle in LNCaP; type: cell-based; conditions: increased concentrations, 24 and 48 hours, FIG. 8
Description: The counted cells (10^5 cells/ml×3 ml) are seeded in the 6-well cell culture plate for 24 hours for attaching on the bottom of the cell culture plate, then DMEM/F12 medium without fetal bovine serum (FBS) is added therein for further incubation for 24 hours. Next, the medium is replaced with DMEM/F12 supplemented with 10% FBS, and the drugs at different concentrations are respectively added therein for reacting 24 and 48 hours. The cellular inoculate is harvested, and the wells are washed with phosphate buffered saline (PBS) for twice or triplet. The cells are eluted with 0.25% trypsin-0.02% EDTA, and are collected with the original inoculate in the centrifuge tube which is centrifuged at 4° C. at 1250×g (1200 rpm) for 5 minutes. Next, the supernatant is discarded and the pellet is resuspended in 1 ml PBS and the resuspended cells are transferred to an eppendorf tube which is centrifuged once again. The supernatant is discarded, and the cells are fixed with 300 μl PBS (4° C.) and 700 μl of 99.5% ethanol (50, 50, 100, 100, 200 and 200 μl ethanol respectively and sequentially added to make the cells resuspended in the well) for 30 minutes. […] The cells are transferred into a tube, and the cells are detected using CyFlow® cytometer. The ratios of G0/G1, S and G2/M phases are determined using multicycle DNA analysis software.

PZ-HPV-7 cells = conditions: Liu et al., 2007; cited from earlier work
[3] = test system: human prostate carcinoma LNCaP; assay: MTT assay, survival rate of LNCaP; conditions: various concentrations, 24 and 48 hours, FIG. 7(A)
[4] = test system: cAMP (cyclic adenosine monophophate); assay: cAMP concentration in LNCaP cells; type: cell-based, human
AR (androgen receptor) = assay: Immunoblotting of AR in LNCaP; type: cell-based, human; conditions: 100 μM, 48 hours, FIG. 10(A)
Description: as §1, §2

Bax/Bcl-2 ratio = Bax/Bcl-2 ratio in LNCaP; type: cell-based, human; conditions: various concentrations, 48 hours, FIG. 16(C)
[5] = test system: dihydrotestosterone receptor; assay: Dihydrotestosterone receptor expression in LNCaP; type: cell-based, human; conditions: 100 μM, 48 hours, FIG. 10(B)
Description: as §1, §2

[6] = test system: human tongue squamous cell carcinoma SCC-25; assay: MTT assay, survival rate of SCC-25; conditions: 0.1-100 μM, 24 and 48 hours, FIG. 2
LNCaP prostate tumor = assay: Tumor size in LNCaP-xenografted rude mice; type: in vivo; conditions: for dose at which the significant effect is obtained: data not shown; for effect on LNCaP prostate tumor compared with the control: once per day for two months
Description: In addition to observe the inhibition effect of the halogenated xanthine derivatives on the cancer cell lines in the cellular level, the animal experiments are further performed. LNCaP-xenografted rude mice are injected intraperitoneally with KMUP-1 ([…]) and dosed orally with KMUP-1 (200 and 400 mg/kg) respectively once per day, and a continuity for two months. […] The significant effect can be obtained (data not shown) when KMUP-1 is 100 mg/kg. […] The significant effect can be obtained (data not shown) when KMUP-1 is 200 mg/kg.

p27 protein = assay: Immunoblotting of p27 in LNCaP; type: cell-based, human
Description: as §1, §2

Bax = Bax expression in LNCaP; type: cell-based, human; conditions: various concentrations, 48 hours, FIG. 16(A)
[7] = test system: human prostate carcinoma DU145; assay: MTT assay, survival rate of DU145; conditions: various concentrations, 24 and 48 hours, FIG. 7(B)
[8] = test system: cGMP (3′,5′-cyclic guanosine monophosphate); assay: cGMP concentration in LNCaP cells; type: cell-based, human; conditions: for cGMP concentration: 48 hours, FIG. 9(A)
[9] = test system: human prostate carcinoma PC-3; assay: MTT assay, survival rate of PC-3; conditions: various concentrations, 24 and 48 hours, FIG. 7(C)
p21 = conditions: Liu et al., 2007; cited from earlier work
[10] = test system: human prostate epithelial PZ-HPV-7; conditions: Liu et al., 2007; cited from earlier work

For `Cn1c(=O)c2c(ncn2CCN2CCN(c3ccccc3Cl)CC2)n(C)c1=O` [KMUP-1, 7-[2-[4-(2-chlorobenzene)piperazinyl]ethyl]-1,3-dimethylxanthine], the “Cyclin D expression at 100 μM relative to that at 1 μM” value (Cyclin D protein; 24 hours) was “one ninth”, the “Cyclin D expression at 100 μM relative to that at 1 μM” value (Cyclin D protein; 48 hours) was 20% and the “Cyclin D expression” value (Cyclin D protein; various concentrations, 24 and 48 hours, FIG. 13) was “would be decreased”. For the same compound, the “body weight, experimental group versus control group” value ([1]; dosed orally, eight weeks, FIG. 18(B)) was “do not have significant difference”, the body weight ([1]; subcutaneous injection, FIG. 17(B)) was “can decrease the body weight” and the Bcl-2 expression (Bcl-2) was “decreases with the increased concentration of KMUP-1”. The “CDK4 expression at 100 μM relative to that at 1 μM” value (CDK4 protein; 48 hours) was 50%, the CDK4 expression (CDK4 protein; various concentrations, 24 and 48 hours, FIG. 14) was “would be decreased” and the “p21 expression at 100 μM relative to that at 1 μM” value (p21 protein) was “four times”. The p21 expression (p21 protein; various concentrations, 24 and 48 hours, FIG. 11) was “would be increased”, the “effect on cell cycle” value [2] was “cease in G0/G1 phase and tend to sub-G1 phase” and the “effect on cell cycle of PZ-HPV-7” value (PZ-HPV-7 cells) was “cease of cell cycle at G0/G1 phase”. For the same compound, the “survival rate relative to the control” value [3] was “decrease with the increased concentrations of KMUP-1”, the “cAMP concentration versus 100 μM KMUP-1 individually” value ([4]; 100 μM KMUP-1 plus 10 μM SQ22536, 48 hours) was “can decrease the amount of cAMP in LNCaP cells” and the cAMP concentration ([4]; KMUP-1 individually, 48 hours, FIG. 9(B)) was “increases the amount of cAMP in LNCaP cells”. The AR expression (AR (androgen receptor)) was “completely inhibited”, the Bax/Bcl-2 ratio (Bax/Bcl-2 ratio) was “increases with the increased concentration of KMUP-1” and the dihydrotestosterone receptor expression [5] was “relatively low”. The “survival rate relative to the control” value [6] was “decreases with the increased concentrations of KMUP-1”, the “LNCaP prostate tumor size” value (LNCaP prostate tumor; injected subcutaneously, 100 and 150 mg/kg, FIG. 17(A)) was “does not enlarge anymore” and the “dose at which the significant effect is obtained” value (LNCaP prostate tumor; intraperitoneal injection) was 100 mg/kg. For the same compound, the “effect on LNCaP prostate tumor compared with the control” value (LNCaP prostate tumor; intraperitoneal injection) was “can significantly eliminate the LNCaP prostate tumor”, the “dose at which the significant effect is obtained” value (LNCaP prostate tumor; oral dosage) was 200 mg/kg and the “effect on LNCaP prostate tumor compared with the control” value (LNCaP prostate tumor; oral dosage) was “can significantly eliminate the LNCaP prostate tumor”. The “LNCaP prostate tumor size” value (LNCaP prostate tumor; orally dosed, 400 mg/kg, FIG. 18(A)) was “does not enlarge anymore”, the “p27 expression at 100 μM relative to that at 1 μM” value (p27 protein; 24 hours) was “twice” and the p27 expression (p27 protein; various concentrations, 24 and 48 hours, FIG. 12) was “would be increased”. The Bax expression (Bax) was “has no difference with the increased concentration of KMUP-1”, the “survival rate relative to the control” value [7] was “decrease with the increased concentrations of KMUP-1” and the cGMP concentration ([8]; KMUP-1 individually) was “increases the content of cGMP”. For the same compound, the cGMP concentration ([8]; together with 1 μM ODQ) was “the increased effect is not significant as KMUP-1 individually functioned on LNCaP cells”, the “survival rate relative to the control” value [9] was “decrease with the increased concentrations of KMUP-1” and the “p21 expression in PZ-HPV-7” value (p21) was “increase p21 expression”. For the same compound, the “growth of PZ-HPV-7” value [10] was “can inhibit the growth”.
For `O=c1onc2cnc3ccccc3n12` [ODQ, 1H-[1,2,4]oxadiazolo[4,3-a]quinoxalin-1-one, reference compound], the “antagonism of the KMUP-1 effect on cGMP” value ([8]; 1 μM ODQ with KMUP-1, 48 hours) was “antagonists to each other”.
With `Nc1ncnc2c1ncn2C1CCCO1` (stereo not drawn) [SQ22536, reference compound] the “antagonism of the KMUP-1 effect on cAMP” value ([4]; 10 μM SQ22536 with 100 μM KMUP-1, 48 hours) was “can antagonize the improved effect of KMUP-1”.

Reference: patent US20110118464A1, “HALOGENATED XANTHINE DERIVATIVES AND PRECURSORS THEREOF FOR ANTI-CANCER AND ANTI-METASTASIS ACTIVITY AND PREPARING METHOD THEREOF” (Kaohsiung Medical University, priority 2009, published 2011)
